These results are taken from patent US6297245A, “Cisplatin and folic acid administered to treat breast cancer” (Unitech Pharmaceuticals, priority 1999, dated 2001).

The structures appear in SMILES notation.

Holding throughout (format): cell-based
Assay [1] relates to normal human mammary cells (NHMC). The assay is described as follows: Growth inhibition of normal human mammary cells (NHMC) grown in RPMI-10. The note with it: for Percent Growth Inhibition in NHMC Cells Grown in RPMI-10: RPMI-1640 with 10% fetal calf serum. An excerpt: (§1) The results shown the extent of inhibition of cell growth compared to controls expressed in percent inhibition. The results are shown as follows:
RPMI-10 refers to standard RPMI-1640 medium with 10% fetal calf serum added.

For assay [2] the test system is unchanged. The assay is described as follows: Growth inhibition of normal human mammary cells (NHMC) grown at low calcium concentration (40 μM). As to conditions: calcium 40 μM. How it is done:
as §1
Table 3 Percent Growth Inhibition in NHMC Cells Grown at Low Calcium Concentration (40 μM).

The test system of assay [3] is human breast cancer cells (MCF-7). Description: Growth inhibition of human breast cancer cells (MCF-7). An excerpt:
The results shown the extent of inhibition of cell growth compared to controls expressed in percent inhibition.

Regarding `N.N.[Cl][Pt][Cl]` [cisplatin, cis-diamminedichloroplatinum], the “Percent Growth Inhibition in NHMC Cells Grown in RPMI-10” value was 88% in assay [1] (1/100), 46% in assay [1] (1/200) and 0% in assay [1] (1/400). In assay [1] (in words, RPMI-10), the “inhibitions on NHMC, comparison of cisplatin and #801C” value is on record as “not significantly different”. Also, the results for the “Percent Growth Inhibition in NHMC Cells Grown at Low Calcium Concentration (40 μM)” value in assay [2] (1/100), in assay [2] (1/200) and in assay [2] (1/400) were 32%, 31% and 27%, respectively. Further, the figures for the “Percent Growth Inhibition in MCF-7 Cells” value in assay [3] (5 μL), in assay [3] (10 μL) and in assay [3] (25 μL) were 25%, 49% and 92%, respectively. Also, in assay [3] (in words), the “inhibitions on MCF-7, comparison of cisplatin and #801C” value is given as “essentially the same”.
